Test results taken from PubChem BioAssay AID330 (DTP/NCI, 2004).
Where “and” joins values, the source holds several entries; their conditions need not be identical. Equal entries are not always repeated. Inconclusive results and toxic doses are left out. How the source made its calls: active means survival T/C of 150% or more; inactive means T/C below 125% in these data.

Test system: P388 leukemia ip, CD2F1 mice, survival T/C
Assay: NCI In Vivo Anticancer Drug Screen. Data for tumor model P388 Leukemia (intraperitoneal) in CD2F1 (CDF1) mice
Conditions: endpoint: median survival time, higher = longer survival
How it was run: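 Mice carrying the transplanted tumor received test compound or vehicle. Survival was recorded in each group, and the value is the treated-group measurement divided by that of the vehicle-treated control group.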

[1] = dose: 100.0 mg/kg/injection, schedule: Q04DX003 (ip), vehicle: saline with Tween-80
[2] = dose: 200.0 mg/kg/injection, schedule: Q04DX003 (ip), vehicle: saline with Tween-80
[3] = dose: 25.0 mg/kg/injection, schedule: Q01DX009 (ip), vehicle: saline
[4] = dose: 100.0 mg/kg/injection, schedule: Q04DX002 (ip), vehicle: saline with Tween-80
[5] = dose: 200.0 mg/kg/injection, schedule: Q04DX002 (ip), vehicle: saline with Tween-80
[6] = dose: 400.0 mg/kg/injection, schedule: Q04DX002 (ip), vehicle: saline with Tween-80
[7] = dose: 7.5 mg/kg/injection, schedule: Q01DX005 (ip), vehicle: Klucel (hydroxypropylcellulose) (HPC)
[8] = dose: 15.0 mg/kg/injection, schedule: Q01DX005 (ip), vehicle: Klucel (hydroxypropylcellulose) (HPC)
[9] = dose: 30.0 mg/kg/injection, schedule: Q01DX005 (ip), vehicle: Klucel (hydroxypropylcellulose) (HPC)
[10] = dose: 60.0 mg/kg/injection, schedule: Q01DX005 (ip), vehicle: Klucel (hydroxypropylcellulose) (HPC)
[11] = dose: 120.0 mg/kg/injection, schedule: Q01DX005 (ip), vehicle: Klucel (hydroxypropylcellulose) (HPC)
[12] = dose: 240.0 mg/kg/injection, schedule: Q01DX005 (ip), vehicle: Klucel (hydroxypropylcellulose) (HPC)
[13] = dose: 50.0 mg/kg/injection, schedule: Q01DX009 (ip), vehicle: Klucel (hydroxypropylcellulose) (HPC)
[14] = dose: 100.0 mg/kg/injection, schedule: Q01DX009 (ip), vehicle: Klucel (hydroxypropylcellulose) (HPC)
[15] = dose: 200.0 mg/kg/injection, schedule: Q01DX009 (ip), vehicle: Klucel (hydroxypropylcellulose) (HPC)
[16] = dose: 60.0 mg/kg/injection, schedule: Q01DX005 (ip), vehicle: saline with Tween-80
[17] = dose: 120.0 mg/kg/injection, schedule: Q01DX005 (ip), vehicle: saline with Tween-80

Measured: T/C

CCOc1ccc(Br)cc1/C=N\N=C\c1cc(Br)ccc1OCC
inactive: dose: 100.0 mg/kg/injection, schedule: Q01DX009 (ip), vehicle: saline with Tween-80 90 % of control | [1] 95 % of control | dose: 200.0 mg/kg/injection, schedule: Q01DX009 (ip), vehicle: saline with Tween-80 100 % of control | [2] 95 % of control | dose: 400.0 mg/kg/injection, schedule: Q01DX009 (ip), vehicle: saline with Tween-80 100 % of control | dose: 400.0 mg/kg/injection, schedule: Q04DX003 (ip), vehicle: saline with Tween-80 100 % of control

Cc1cccc(C)c1NC(=O)CCC(=O)C(C)C(=O)c1ccc(O)cc1 (stereo not given)
inactive: dose: 100.0 mg/kg/injection, schedule: Q01DX001 (ip), vehicle: saline with Tween-80 100 % of control | dose: 200.0 mg/kg/injection, schedule: Q01DX001 (ip), vehicle: saline with Tween-80 100 % of control | dose: 400.0 mg/kg/injection, schedule: Q01DX001 (ip), vehicle: saline with Tween-80 97 % of control

Cc1ccc2c(c1)C=CC(C#N)N2C(=O)OCc1ccccc1 (stereo not given)
inactive: [1] 90 % of control | [2] 95 % of control

Cc1cccc(N(CCOS(C)(=O)=O)CCOS(C)(=O)=O)c1
inactive: dose: 1.56 mg/kg/injection, schedule: Q01DX009 (ip), vehicle: saline 95 % of control | dose: 3.12 mg/kg/injection, schedule: Q01DX009 (ip), vehicle: saline 98 % of control | dose: 6.25 mg/kg/injection, schedule: Q01DX009 (ip), vehicle: saline 100 % of control | dose: 12.5 mg/kg/injection, schedule: Q01DX009 (ip), vehicle: saline with Tween-80 87 % of control | [3] 102 % of control

CN(C)CCNC(=O)c1nn(-c2ccccc2)c2c1CSc1ccccc1-2
inactive: [4] 100 % of control | [5] 105 % of control | [6] 103 % of control

CC1(C)CCC2(C(=O)O)CCC3(C)C(=CCC4C5(C)CCC(OC6OC(CO)C(O)C(OC7OC(CO)C(O)C(O)C7O)C6OC6OC(CO)C(O)C(O)C6O)C(C)(C)C5CCC43C)C2C1 (stereo not given)
inactive: dose: 3.75 mg/kg/injection, schedule: Q01DX005 (ip), vehicle: Klucel (hydroxypropylcellulose) (HPC) 102 % of control | [7] 100 % of control | [8] 88 % of control | [9] 100 % of control

N#Cc1nnc2cc(-c3ccccc3)nn2c1-c1cccs1
inactive: [10] 86 % of control | [11] 90 % of control | [12] 87 % of control

ClC1=CCCC(C(Br)Br)C1 (stereo not given)
inactive: [13] 99 % of control | [14] 100 % of control | [15] 102 % of control

O=C1CCS(=O)(=O)c2ccccc21
inactive: dose: 50.0 mg/kg/injection, schedule: Q01DX009 (ip), vehicle: saline with Tween-80 100 % of control

CN(C)CC(C)(CN(C)C)C(=O)/C=C/c1c(Cl)cccc1Cl
inactive: [16] 115 % of control | [17] 120 % of control

CC1=CCCN(C)C1c1ccccc1 (stereo not given)
inactive: dose: 50.0 mg/kg/injection, schedule: Q01DX005 (ip), vehicle: saline 99 % of control | dose: 100.0 mg/kg/injection, schedule: Q01DX005 (ip), vehicle: saline 99 % of control

Cc1nc2nc(O)c(Cc3ccccc3)c(=O)n2nc1C
inactive: dose: 50.0 mg/kg/injection, schedule: Q01DX005 (ip), vehicle: Klucel (hydroxypropylcellulose) (HPC) 95 % of control | dose: 100.0 mg/kg/injection, schedule: Q01DX005 (ip), vehicle: Klucel (hydroxypropylcellulose) (HPC) 93 % of control | dose: 200.0 mg/kg/injection, schedule: Q01DX005 (ip), vehicle: Klucel (hydroxypropylcellulose) (HPC) 95 % of control

O=C1C2CCSCN2C(=O)N1c1ccccc1 (stereo not given)
inactive: [16] 95 % of control | [17] 103 % of control | dose: 240.0 mg/kg/injection, schedule: Q01DX005 (ip), vehicle: saline with Tween-80 95 % of control

O=C(O)c1cc2c3ccccc3sc2c2ccccc12
inactive: [9] 93 % of control | [10] 93 % of control | [11] 90 % of control | [12] 90 % of control

OCCN1CCN(CC/C=C2/c3ccccc3Sc3ccc(C(F)(F)F)cc32)CC1
inactive: dose: 10.0 mg/kg/injection, schedule: Q04DX003 (ip), vehicle: saline 115 % of control and 123 % of control | dose: 20.0 mg/kg/injection, schedule: Q04DX003 (ip), vehicle: saline 115 % of control | dose: 80.0 mg/kg/injection, schedule: Q04DX003 (ip), vehicle: saline 91 % of control

CC1(c2ccccc2)Nc2ccccc2C1=Nc1ccccc1 (stereo not given)
inactive: dose: 50.0 mg/kg/injection, schedule: Q04DX003 (ip), vehicle: saline with Tween-80 99 % of control | [1] 96 % of control | [2] 100 % of control

C[N+]12CC[N+](C)(CC1)CC2
inactive: dose: 12.5 mg/kg/injection, schedule: Q01DX009 (ip), vehicle: saline 101 % of control | [3] 109 % of control | dose: 50.0 mg/kg/injection, schedule: Q01DX009 (ip), vehicle: saline 115 % of control

CCCCNC(C)(C)C(SS)c1ccc(C(F)(F)F)cc1 (stereo not given)
inactive: dose: 50.0 mg/kg/injection, schedule: Q04DX003 (ip), vehicle: other 100 % of control | dose: 100.0 mg/kg/injection, schedule: Q04DX003 (ip), vehicle: other 104 % of control

COc1ccc(N=Nc2ccc(N)c3cccnc23)c(OC)c1
inactive: [4] 97 % of control | [5] 106 % of control | [6] 92 % of control

O=C1NC(=O)c2c1c1cnn(-c3ccccc3)c1n1cccc21
inactive: dose: 7.5 mg/kg/injection, schedule: Q01DX005 (ip), vehicle: saline with Tween-80 96 % of control | dose: 15.0 mg/kg/injection, schedule: Q01DX005 (ip), vehicle: saline with Tween-80 96 % of control | dose: 30.0 mg/kg/injection, schedule: Q01DX005 (ip), vehicle: saline with Tween-80 87 % of control

NCCn1[nH]c(=O)c2cccnc2c1=O
inactive: [4] 100 % of control | [5] 95 % of control | [6] 101 % of control

CSCCCNC(=O)c1csc(-c2csc(CCNC(=O)[C@@H](NSc3ccccc3[N+](=O)[O-])[C@@H](C)O)n2)n1
inactive: dose: 6.25 mg/kg/injection, schedule: Q01DX005 (ip), vehicle: saline with Tween-80 100 % of control | dose: 12.5 mg/kg/injection, schedule: Q01DX005 (ip), vehicle: saline with Tween-80 104 % of control | dose: 25.0 mg/kg/injection, schedule: Q01DX005 (ip), vehicle: saline with Tween-80 95 % of control | dose: 50.0 mg/kg/injection, schedule: Q01DX005 (ip), vehicle: saline with Tween-80 87 % of control | dose: 200.0 mg/kg/injection, schedule: Q01DX005 (ip), vehicle: saline with Tween-80 87 % of control

O=C1CSC(=S)N1c1ccc(Br)cc1
inactive: [13] 106 % of control | [14] 105 % of control | [15] 108 % of control

O=C1CC2C(C1Nc1ccccc1)C1C(=Nc3ccccc3)C(Nc3ccccc3)=CC1N2c1ccccc1 (stereo not given)
inactive: [7] 100 % of control | [8] 97 % of control | [9] 95 % of control
